Test results from patent US9610332B2, “Compositions and methods for modulating BRD4 bioactivity” (priority 2012, dated 2017).

Assays:
U20S cells [1] = assay: H2AX phosphorylation / γH2AX foci after IR with Brd4 bromodomain inhibitor; assay type: cell-based, human
Experimental: For small molecule testing, cells were plated at 500 cells/well in 384-well plates. The day after plating, small molecules at different concentrations in 100 nL DMSO were pin transferred to cells with a CyBio robot, and cells were propagated for 16 hours.
All plates were treated with 10 Gy of 667 keV X-rays from a 137Cs source in a Gammacell irradiator (Atomic Energy of Canada, Ltd). A 0 hour control plate was not irradiated. The plates were returned to the incubator and fixed with 4.4% w/v paraformaldehyde in phosphate-buffered saline (PBS) at 1, 6, and 24 hours post irradiation. Plates were stored in PBS at 4° C. prior to staining. Fixed plates were washed 3 times with PBS and blocked with 24 IJL of GSDB (0.15% goat serum, 8.33% goat serum, 120 mM sodium phosphate, 225 mM NaCl) for 30 minutes. […]
U20S cells were plated on #1 glass coverslips (VWR) and were cultured in DMEM+Pen/Strep+10% v/v FBS (complete media) at 37° C. in a 5% CO2 atmosphere, then exposed to 10 Gy Ionizing radiation from a 137CS source in a Gammacell irradiator (Atomic Energy of Canada, Ltd). fixed in methanol, and processed for immuofluorescence using the antibodies indicated above. […] Quantitative image analysis was accomplished using CellProfiler (www.CellProfiler.org) or ImageJ software (http://rsb.info.nih.gov/nihimageJ).

Brd4 bromodomain 1 = Brd4 bromodomain 1 (Homo sapiens, UniProt O60885); settings: as reported previously (Nature 468:1067 (2010)); cited from earlier work
[2] = tested on: U20S cells overexpressing Brd4 isoform B; assay: γH2AX foci / DDR signaling suppression in cells overexpressing Brd4 isoform B; assay type: cell-based, human; settings: for sensitivity of suppression of DDR signaling by Brd4 isoform B overexpression to transcription or translation inhibition: a-amanitin 1-16 μM, cycloheximide 35-560 μM
Experimental: U20S cells were plated on #1 glass coverslips (VWR) and were cultured in DMEM+Pen/Strep+10% v/v FBS (complete media) at 37° C. in a 5% CO2 atmosphere, then exposed to 10 Gy Ionizing radiation from a 137CS source in a Gammacell irradiator (Atomic Energy of Canada, Ltd). fixed in methanol, and processed for immuofluorescence using the antibodies indicated above. Images were captured on a Zeiss Axiophot II microscope with a Hamamatsu CCD camera and processed with OpenLab/Volocity software. Quantitative image analysis was accomplished using CellProfiler (www.CellProfiler.org) or ImageJ software (http://rsb.info.nih.gov/nihimageJ).
(§1) UCN01 was from Sigma (cat. #U6508) and was used at concentrations of 0.003-10 μM.
3×10^6 U20S cells were plated and transiently transfected with pEGFP-C 1, isoform C, isoform B, isoform B, BD1 mutant, Brd4-NUT and truncated Brd4-NUT using Fugene 6 (Roche). These cells were exposed to 10 Gy Ionizing radiation and harvested 24 hrs later, fixed with 4% formaldehyde, extracted with 100% ethanol, processed for flow cytometry using the antibodies listed above. Data were analyzed using FlowJo (www.flowjo.com) software.
U20S cell lines stably expressing this shRNA or control hairpins (ineffective hairpins directed against human sequences of BAD and PUMA) were created using puromycin selection at 2 ug/mL. STEALTH siRNA against BRD4 and control were purchased from Invitrogen, and used according to manufacturer's instructions.

CHEK2 mRNA = CHEK2 mRNA expression by RT-PCR; assay type: cell-based, human; settings: short term treatment; FIG. 6B, 6C
Experimental: as §1

U20S cells [3] = assay: Image-based screen: G2/M arrest and mitotic entry (DNA content, pHH3) after irradiation; assay type: cell-based, human; settings: 10 Gy IR, FIGS. 1B, 1D, 1F, 1G
Experimental: For both shRNA and small molecule screens, human U20S osteosarcoma cells (ATCC HTB-96) were grown in DMEM+Pen/Strep+10% v/v FBS (complete media) at 37° C. in a 5% CO2 atmosphere. All screens were carried out at passage 10-15. Cells were tested for mycoplasma by PCR prior to seeding and infection. U20S cells were seeded with a MicroFill (Biotek) in 384-well black, clear bottom plates (Greiner) at a density of 300 (shRNA) cells/well in 50 IJL of media, and allowed to attach overnight at 37° C. in a 5% CO2 atmosphere.
For shRNA screens, the media was exchanged the following day to complete media with 8 μg/mL polybrene using a JANUS workstation (PerkinElmer). Virus infection was carried out on an EP3 workstation (PerkinElmer) with 1.5 μL of hightiter retrovirus. […] Plates were centrifuged in a swinging-bucket rotor at 2250 rpm for 30 minutes following infection and returned to the incubator overnight. […]
Plates were allowed to equilibrate to room temperature for 30 minutes and imaged on a Cellomics ArrayScan VTI automated microscope with a 20× objective. […] Images were segmented and analyzed with CellProfiler cell image analysis software (Carpenter et al., Genome Biology, 2006, 7, R100). […]

Cc1sc2c(c1C)C(c1ccc(Cl)cc1)=NC(CC(=O)OC(C)(C)C)c1nnc(C)n1-2 (single isomer, unassigned; (+)) [(+)JQ1]
H2AX phosphorylation following IR (U20S cells [1]; compound at 250 nM, 10 Gy IR): enhanced H2AX phosphorylation following IR
γH2AX foci formation after irradiation (U20S cells [1]; inhibition with JQ1 or short term Brd4 knockdown): sufficient to increase γH2AX foci formation after irradiation
inhibition of Brd4 bromodomain 1 versus bromodomain 2 (Brd4 bromodomain 1): more potent inhibition of Brd4 bromodomain 1 than bromodomain 2
reversal of the ability of Brd4 isoform B to suppress γH2AX foci formation ([2]; cells overexpressing Brd4 isoform B, compound at 250 nM): reversed
CHEK2 mRNA (CHEK2 mRNA): no change in CHEK2 mRNA

CN[C@@H]1C[C@H]2O[C@@](C)([C@@H]1OC)n1c3ccccc3c3c4c(c5c6ccccc6n2c5c31)C(=O)N[C@@H]4O [UCN01]
G2/M arrest following irradiation / mitotic entry (U20S cells [3]): abrogated the normal G2/M arrest following irradiation, leading to premature mitotic entry

C[C@@H]1C[C@@H]([C@H](O)CC2CC(=O)NC(=O)C2)C(=O)[C@@H](C)C1 [cycloheximide]
sensitivity of suppression of DDR signaling by Brd4 isoform B overexpression to transcription or translation inhibition [2]: insensitive

a-amanitin
sensitivity of suppression of DDR signaling by Brd4 isoform B overexpression to transcription or translation inhibition [2]: insensitive
